# Test results: article PMC4985751, “Enhanced Cationic Charge is a Key Factor in Promoting Staphylocidal Activity of α-Melanocyte Stimulating Hormone via Selective Lipid Affinity” (Scientific Reports, 2016)
# Legend:
# [1] = Lipid binding by Trp fluorescence titration
# Description: Further, we evaluated the relative binding constants of α-MSH and KKK-MSH to bacterial mimic SUVs to understand if there are differences between lipid binding affinities of these two peptides. Towards this, we incubated a fixed concentration of peptide (12.5 μM) with increasing concentrations of bacterial mimic SUVs (DMPC:DMPG, 7:3, w/w) and concomitant changes in the intensity of emission maxima for Trp residue were recorded. Correction for light scattering was done by subtracting the corresponding spectra of the SUVs alone. […]
# Figure 7 Trp fluorescence studies to estimate binding of α-MSH and KKK-MSH to bacterial mimic SUVs. Increasing concentrations of DMPC:DMPG (7:3, w/w) SUVs in 10 mM TES buffer (pH 7.2) were titrated with fixed peptide concentration (12.5 μM) and the emission spectrum was recorded. […] The fluorescence spectrum was recorded at 25 °C by exciting samples at 295 nm and recording emission from 310 nm to 450 nm. […] Contributions from the buffer and SUVs were appropriately subtracted and volume corrected fluorescence values were used to calculate the fraction of bound peptide.
# Lipid binding was measured by titrating SUVs (DMPC:DMPG, 7:3, w/w) into 12.5 μM of the peptide by varying lipid to peptide ratio from 75.6 to 3.3. After each addition of lipid, emission spectrum was recorded between 310 to 450 nm using excitation at 295 nm with excitation and emission slit width of 3 nm. […]
# [2] = system: MSSA ATCC 29213; test: 2 h killing assay (colony count), MSSA; assay type: cell-based, Staphylococcus aureus; details: 10 μM peptide, 37 °C, 10^7 CFU/mL MSSA ATCC 29213, 5 mM HEPES, 20 mM glucose, pH 7.4, mean ± S.D. of three independent experiments
# Description: (§1) To determine the antibacterial activity, cells (MSSA ATCC 29213 and MRSA ATCC 33591) from secondary culture mid-logarithmic phase were used. The cells were centrifuged, washed and re-suspended in buffer (5 mM HEPES, 20 mM glucose, pH 7.4). The re-suspended cells were adjusted to OD600 of 0.5 spectrophotometrically (~10^8 CFU/mL). Desired cell densities were then exposed to 10 μM concentration of α-MSH and other analogues and incubated at 37 °C for 2 h. After 2 h incubation, the cells were diluted in buffer and small aliquots were plated on BHI agar plates. The plates were incubated overnight at 37 °C. Survival was determined by counting of the colony forming unit (CFU/mL) on agar plate using the following formula[23]: […]
# [3] = system: MSSA ATCC 29213; test: Membrane permeabilization, PI uptake by flow cytometry; assay type: cell-based, Staphylococcus aureus; details: 10 μM peptide, 1 h, 37 °C, 10^5 CFU/mL in PBS pH 7.4; >10 a.u. counted positive; mean ± S.D. of three independent experiments
# Description: The propidium iodide (PI) uptake assay was performed to assess membrane permeabilization by flow cytometry according to a method described elsewhere[58]. MSSA ATCC 29213 cells were grown in BHI broth to mid-logarithmic phase and harvested by centrifugation at 4,000 rpm for 10 min. The cell pellet was washed once with PBS (10 mM sodium phosphate, 150 mM NaCl, pH 7.4) and was adjusted to 10^5 CFU/mL in PBS. The cells were incubated with PI (1.3 μg/mL) at 37 °C for 20 min in the dark. After incubating the cells with PI, cells were exposed to peptides (10 μM) at 37 °C. PI fluorescence was measured after 1 h incubation with excitation and emission wavelength of 544 nm and 620 nm, respectively, using Becton Dickinson (BD) FACS verse, San Jose, CA. The cells having more than 10 fluorescence unit (arbitrary) were considered to be stained with PI.
# [4] = system: B16 mouse melanoma cells stably expressing human melanocortin receptor MC1R; test: Cyclic-AMP accumulation analysis; assay type: cell-based; details: 600 nM, 1 μM and 10 μM peptide, 10 min
# Description: The intracellular cyclic-AMP analysis was performed according to a method described elsewhere, with slight modifications. Briefly, B16 mouse melanoma cells stably expressing human melanocortin receptor MC1R were grown to confluence in DMEM medium (Sigma-Aldrich, USA) containing 10% fetal calf serum (FCS) and 1x anti-anti (Gibco). The cells were seeded in 12-well plates 48 h before assay and grown to 10^5 cells/well. For the assay, the medium was removed and cells were washed with 1 mL of media. Then 1 mL DMEM media (without FCS) containing 100 μM 3-isobutyl-1-methylxanthine (IBMX) was added to each well and incubated for 30 min at 37 °C. The media was then discarded and various concentrations of α-MSH and KKK-MSH viz., 600 nM, 1 μM and 10 μM, in 1 mL fresh 25% DMEM media (without FCS) in PBS containing 100 μM IBMX were added to the appropriate wells and incubated for 10 min at 37 °C, 5% CO2. After 10 min the reaction was stopped by aspirating the media and washing the wells with 1 mL PBS. 200 μL 0.1 M hydrochloric acid was then added to each well and the wells were scrapped. The lysates were centrifuged at 600 rcf for 5 min and the supernatants were collected and diluted 1000 times in 0.1 M HCl and used for analysis of the total cyclic-AMP content using Enzyme Immunoassay Kit (Sigma-Aldrich, USA, CA200) according to the manufacturer’s instructions.
# [5] = system: MSSA ATCC 29213; assay type: cell-based, Staphylococcus aureus; details: at 10.47 μM peptide; thereafter marginal increase up to 41.2 μM
# Description: The cytoplasmic membrane depolarization was measured using membrane potential sensitive cyanine dye DiSC3(5)[57]. Briefly, mid-logarithmic phase MSSA ATCC 29213 cells were washed and re-suspended in buffer (5 mM HEPES, 20 mM glucose, pH 7.2) to an OD600 of 0.05 which corresponds to ~10^7 CFU/mL. Cells were divided into aliquots and incubated with 2 μM of DiSC3(5) for 1 h to get steady baseline fluorescence intensity. The dye-loaded cells were treated with increasing peptide concentrations (2.1 μM, 10.47 μM, 20.83 μM and 41.23 μM). Fluorescence was monitored in a Shimadzu RF-5301 PC spectrofluorimeter at an excitation wavelength of 622 nm and an emission wavelength of 670 nm. The corresponding killing was measured by plating the aliquots onto BHI agar plate to obtain viable bacterial counts.
# [6] = system: MRSA ATCC 33591; test: 2 h killing assay (colony count), MRSA; assay type: cell-based, Staphylococcus aureus; details: 10 μM peptide, 37 °C, 10^6 CFU/mL MRSA ATCC 33591, 5 mM HEPES, 20 mM glucose, pH 7.4, mean ± S.D. of three independent experiments
# Description: as §1
# [7] = RP-HPLC elution, % hydrophobicity; assay type: physicochemical; details: chromatographic, C18 column
# From the text: A balance between hydrophobicity and cationic charge has been reported to be crucial for the activity of many membrane active CAMPs[39][40][41]. […] For α-MSH it has been shown that the minimum energy conformation is a β-turn which is present in the middle of the sequence spanning the putative message region (residues 6–9)[42]. […] Although, acquisition of secondary structure in the vicinity of phospholipid bilayers has been reported to be crucial for activity, there are examples where no direct correlation between peptide structure acquisition ability and antibacterial activity was observed.
# [8] = system: 3T3 murine fibroblast cell line; assay type: cell-based, mouse
# Description: The cytotoxicity of α-MSH and analogues was tested against 3T3 murine fibroblast cell line using a protocol as described previously. The cell line was propagated at 37 °C in 5% CO2 to over 75% confluence in DMEM supplemented with 10% fetal bovine serum (FBS) and antibiotics and transferred (after treatment with trypsin) to each well of a 24-well plate to a final count of 0.2 × 10^5 cells/well for 24 h. After 24 h, media was aspirated and desired concentration of peptides (50 μM) dissolved in 25% (v/v) DMEM in PBS was added to each well (in triplicate). Triplicate wells without treatment were set as control and wells with 2% Triton X-100 were used as positive control. The plate was kept for 2 h, at 37 °C in 5% CO2 incubator. After 2 h, media was removed and the cells were washed once with 1 mL PBS. In dark, 1 mL MTT (working conc. 0.1 mg/mL) was added to each well and incubated for 2 h at 37 °C. After 2 h, the formazan crystals formed were dissolved in 200 μL of DMSO and kept for 5 min in the incubator. 150 μL of this mixture was transferred to a fresh 96-well plate and absorbance was measured spectrophotometrically at 570 nm. % cytotoxicity was calculated as [(OD570 of control-OD570 of sample)/(OD570 of control)] × 100. The assay was done in triplicate on three different days.
substance,measurement,setting,value
Ac-KYKMKHFRWGKPV-NH2 [KKK-MSH],Binding constant to bacterial mimic SUVs,"[1]; 12.5 μM peptide titrated with DMPC:DMPG (7:3, w/w) SUVs, L:P 75.6 to 3.3, 10 mM TES pH 7.2, 25 °C, hyperbolic fit, one site model","15,402.74 M^−1"
same,Binding constant relative to α-MSH,"[1]; DMPC:DMPG (7:3, w/w) SUVs, steady-state fluorescence",~ 18 fold
same,Reduction in initial cell count,[2],4.07 ± 0.92 Log10 CFU/mL
same,Cells retaining PI (PI positive cells),[3],67.6 ± 3.4%
same,Cyclic-AMP levels compared to untreated control,"[4]; 37 °C, 100 μM IBMX, enzyme immunoassay, p < 0.05",dose-dependent elevation in cyclic-AMP
same,Cyclic-AMP levels compared to α-MSH,"[4]; comparable at higher, lower at lower concentration",comparable or lower levels of cyclic-AMP
same,"Membrane depolarization, relative fluorescence intensity (RFI) of DiSC3(5)",[5],appreciable increase in RFI
same,Reduction in initial cell count,[6],3.81 ± 0.33 Log10 CFU/mL
same,% H (% hydrophobicity based on % of acetonitrile at RP-HPLC elution),[7],39.9%
Triton X-100,Cytotoxicity relative to growth control,[8],83%
